Results: PubChem BioAssay AID330 (DTP/NCI, 2004)
Where “and” joins values, the source holds several entries; their conditions need not be identical. Identical values can stand only once. Inconclusive results and toxic doses are left out.

Tested on: P388 leukemia ip, CD2F1 mice, survival T/C
Test: NCI In Vivo Anticancer Drug Screen. Data for tumor model P388 Leukemia (intraperitoneal) in CD2F1 (CDF1) mice
Details: endpoint: median survival time, higher = longer survival
Summary of the method: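 Mice carrying the transplanted tumor received test compound or vehicle. Survival was recorded in each group, and the value is the treated-group measurement divided by that of the vehicle-treated control group.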

[1] = dose: 50.0 mg/kg/injection, schedule: Q01DX005 (ip), vehicle: Klucel (hydroxypropylcellulose) (HPC)
[2] = dose: 100.0 mg/kg/injection, schedule: Q01DX005 (ip), vehicle: Klucel (hydroxypropylcellulose) (HPC)
[3] = dose: 200.0 mg/kg/injection, schedule: Q01DX005 (ip), vehicle: Klucel (hydroxypropylcellulose) (HPC)
[4] = dose: 50.0 mg/kg/injection, schedule: Q01DX009 (ip), vehicle: saline
[5] = dose: 100.0 mg/kg/injection, schedule: Q01DX009 (ip), vehicle: saline
[6] = dose: 200.0 mg/kg/injection, schedule: Q01DX009 (ip), vehicle: saline
[7] = dose: 50.0 mg/kg/injection, schedule: Q01DX005 (ip), vehicle: saline with Tween-80
[8] = dose: 100.0 mg/kg/injection, schedule: Q01DX005 (ip), vehicle: saline with Tween-80
[9] = dose: 200.0 mg/kg/injection, schedule: Q01DX005 (ip), vehicle: saline with Tween-80

For `O=[N+]([O-])c1cccc(C(Nc2nncs2)Nc2nncs2)c1`, the T/C [1] was 106 % of control and 96 % of control, the T/C [2] was 95 % of control and the T/C [3] was 94 % of control. The T/C (dose: 400.0 mg/kg/injection, schedule: Q01DX005 (ip), vehicle: Klucel (hydroxypropylcellulose) (HPC)) was 96 % of control.
For `CN1C(=O)[C@@H]2N(N(C)C1=O)[C@@]1(Br)C(=O)N(C)C(=O)[C@@]21Br`, the T/C (dose: 60.0 mg/kg/injection, schedule: Q01DX005 (ip), vehicle: Klucel (hydroxypropylcellulose) (HPC)) was 100 % of control, the T/C (dose: 120.0 mg/kg/injection, schedule: Q01DX005 (ip), vehicle: Klucel (hydroxypropylcellulose) (HPC)) was 105 % of control and the T/C (dose: 240.0 mg/kg/injection, schedule: Q01DX005 (ip), vehicle: Klucel (hydroxypropylcellulose) (HPC)) was 101 % of control.
For `N=c1c2ncn(C3OC(CO)C(O)C3O)c2ncn1N` (configuration not stated), the T/C (dose: 25.0 mg/kg/injection, schedule: Q01DX005 (ip), vehicle: water) was 110 % of control, the T/C (dose: 50.0 mg/kg/injection, schedule: Q01DX005 (ip), vehicle: water) was 107 % of control and the T/C (dose: 100.0 mg/kg/injection, schedule: Q01DX005 (ip), vehicle: water) was 105 % of control. The T/C (dose: 200.0 mg/kg/injection, schedule: Q01DX005 (ip), vehicle: water) was 98 % of control and the T/C (dose: 400.0 mg/kg/injection, schedule: Q01DX005 (ip), vehicle: water) was 108 % of control.
In the case of `O=C1C=C(Nc2ccc(Br)cc2)C(Nc2ccc(Br)cc2)=CC1=O`, the T/C (dose: 4.68 mg/kg/injection, schedule: Q01DX009 (ip), vehicle: saline with Tween-80) is reported as 97 % of control, the T/C (dose: 9.37 mg/kg/injection, schedule: Q01DX009 (ip), vehicle: saline with Tween-80) is reported as 105 % of control and the T/C (dose: 18.75 mg/kg/injection, schedule: Q01DX005 (ip), vehicle: saline with Tween-80) is reported as 100 % of control. For the same molecule, the T/C (dose: 18.75 mg/kg/injection, schedule: Q01DX009 (ip), vehicle: saline with Tween-80) was 106 % of control and the T/C (dose: 37.5 mg/kg/injection, schedule: Q01DX005 (ip), vehicle: saline with Tween-80) was 92 % of control.
`CN(N=O)C(=O)NCC1OC(OC2(CO)OC(CNC(=O)N(C)N=O)C(O)C2O)C(O)C(O)C1O` (configuration not stated) was tested, and the T/C [4] was 103 % of control and 109 % of control and 120 % of control, the T/C [5] was 112 % of control and 120 % of control and the T/C [6] was 104 % of control.
In the case of `O=C1NC2CSC(CCCCC(=O)ON3C(=O)CCC3=O)C2N1` (configuration not stated), the T/C [7] is reported as 104 % of control, the T/C [8] is reported as 116 % of control and the T/C [9] is reported as 116 % of control.
`CC(C)(C)OC(=O)NC(Cc1c[nH]c2ccccc12)C(=O)O` (configuration not stated) was tested, and the T/C [1] was 102 % of control, the T/C [2] was 101 % of control and the T/C [3] was 101 % of control.
With `N#CCCN(CCC#N)c1ccc(/C=C2/C=C(c3ccccc3)OC2=O)cc1` the T/C (dose: 100.0 mg/kg/injection, schedule: Q01DX001 (ip), vehicle: saline with Tween-80) was 97 % of control, the T/C (dose: 200.0 mg/kg/injection, schedule: Q01DX001 (ip), vehicle: saline with Tween-80) was 94 % of control and the T/C (dose: 400.0 mg/kg/injection, schedule: Q01DX001 (ip), vehicle: saline with Tween-80) was 90 % of control.
With `Oc1ccc(Nc2c3ccccc3nc3c2ccc2ccccc23)cc1CN(CCCl)CCCl` the T/C (dose: 7.2 mg/kg/injection, schedule: Q04DX003 (ip), vehicle: saline) was 194 % of control, the T/C (dose: 11.0 mg/kg/injection, schedule: Q04DX003 (ip), vehicle: saline) was 205 % of control and the T/C (dose: 16.0 mg/kg/injection, schedule: Q04DX003 (ip), vehicle: saline) was 161 % of control.
For `CCCCOC(=O)C(NC(N)=O)SC` (configuration not stated), the T/C (dose: 50.0 mg/kg/injection, schedule: Q04DX003 (ip), vehicle: saline with Tween-80) was 95 % of control, the T/C (dose: 100.0 mg/kg/injection, schedule: Q04DX003 (ip), vehicle: saline with Tween-80) was 100 % of control and the T/C (dose: 200.0 mg/kg/injection, schedule: Q04DX003 (ip), vehicle: saline with Tween-80) was 99 % of control.
`O=C1CS(=O)(=O)C(c2cccc(Cl)c2)N1N1C(=O)CS(=O)(=O)C1c1cccc(Cl)c1` (configuration not stated) was tested, and the T/C [7] was 92 % of control, the T/C [8] was 100 % of control and the T/C [9] was 92 % of control.
In the case of `O=C1OC(C(O)CO)C(O)=C1OC[N+]1(CCCl)CCN(CCCl)CC1` (configuration not stated), the T/C [4] is reported as 100 % of control and 110 % of control, the T/C [5] is reported as 108 % of control and 116 % of control and the T/C [6] is reported as 123 % of control. For the same molecule, the T/C (dose: 400.0 mg/kg/injection, schedule: Q01DX009 (ip), vehicle: saline) was 157 % of control.
